Test results reported in PubChem BioAssay (NCI).
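Tested at 5 concentrations; 48 h exposure; 96-well plates; endpoints linearly interpolated, else capped at highest concentration. At the GI50, growth is halved. TGI denotes the concentration required for complete inhibition of growth.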

Key:
Assay in all cases: NCI anticancer screen, dose series, 48 h
[1] = tested on: 786-0 renal
[2] = tested on: A498 renal
[3] = tested on: A549 NSCLC
[4] = tested on: ACHN renal
[5] = tested on: BT-549 breast
[6] = tested on: CAKI-1 renal
[7] = tested on: CCRF-CEM leukemia
[8] = tested on: COLO 205 colon
[9] = tested on: DU-145 prostate
[10] = tested on: EKVX NSCLC
[11] = tested on: HCC-2998 colon
[12] = tested on: HCT-116 colon
[13] = tested on: HCT-15 colon
[14] = tested on: HL-60(TB) leukemia
[15] = tested on: HOP-62 NSCLC
[16] = tested on: HOP-92 NSCLC
[17] = tested on: HS 578T breast
[18] = tested on: HT29 colon
[19] = tested on: IGROV1 ovarian
[20] = tested on: K-562 leukemia
[21] = tested on: KM12 colon
[22] = tested on: LOX IMVI melanoma
[23] = tested on: M14 melanoma
[24] = tested on: MALME-3M melanoma
[25] = tested on: MCF7 breast
[26] = tested on: MDA-MB-231 breast
[27] = tested on: MDA-MB-435
[28] = tested on: MOLT-4 leukemia
[29] = tested on: NCI-H226 lung
[30] = tested on: NCI-H23 lung
[31] = tested on: NCI-H460 lung
[32] = tested on: NCI-H522 lung
[33] = tested on: NCI/ADR-RES ovarian
[34] = tested on: OVCAR-3 ovarian
[35] = tested on: OVCAR-4 ovarian
[36] = tested on: OVCAR-5 ovarian
[37] = tested on: OVCAR-8 ovarian
[38] = tested on: PC-3 prostate
[39] = tested on: RPMI-8226 leukemia
[40] = tested on: RXF 393 renal
[41] = tested on: SF-268 CNS
[42] = tested on: SF-295 CNS
[43] = tested on: SF-539 CNS
[44] = tested on: SK-MEL-2 melanoma
[45] = tested on: SK-MEL-28 melanoma
[46] = tested on: SK-MEL-5 melanoma
[47] = tested on: SK-OV-3 ovarian
[48] = tested on: SN12C renal
[49] = tested on: SNB-19 CNS
[50] = tested on: SNB-75 CNS
[51] = tested on: SR leukemia
[52] = tested on: SW-620 colon
[53] = tested on: T-47D breast
[54] = tested on: TK-10 renal
[55] = tested on: U251 CNS
[56] = tested on: UACC-257 melanoma
[57] = tested on: UACC-62 melanoma
[58] = tested on: UO-31 renal

Structure (SMILES): COc1ccc2c(c1)nc(NNC(=O)c1cnccn1)c1cccn12
- GI50 [1]: 432 nM
- TGI [1]: 2180 nM
- GI50 [2]: 1310 nM
- TGI [2]: 2930 nM
- GI50 [3]: 298 nM
- TGI [3]: 3450 nM
- GI50 [4]: 90.6 nM
- TGI [4]: 1400 nM
- GI50 [5]: 917 nM
- TGI [5]: 3620 nM
- GI50 [6]: 659 nM
- TGI [6]: 4810 nM
- GI50 [7]: 67.8 nM
- TGI [7]: > 44100 nM
- GI50 [8]: 264 nM
- TGI [8]: 3010 nM
- GI50 [9]: 156 nM
- TGI [9]: 6300 nM
- GI50 [10]: 161 nM
- TGI [10]: 3700 nM
- GI50 [11]: 1050 nM
- TGI [11]: 2430 nM
- GI50 [12]: 143 nM
- TGI [12]: 2710 nM
- GI50 [13]: 63.1 nM
- TGI [13]: 43000 nM
- GI50 [14]: 257 nM
- GI50 [15]: 96.1 nM
- TGI [15]: 3330 nM
- GI50 [16]: 952 nM
- TGI [16]: 3220 nM
- GI50 [17]: 1660 nM
- TGI [17]: 11100 nM
- GI50 [18]: 354 nM
- GI50 [19]: 107 nM
- TGI [19]: 2220 nM
- GI50 [20]: 393 nM
- TGI [20]: > 100000 nM
- GI50 [21]: 245 nM
- TGI [21]: 9640 nM
- GI50 [22]: 83.7 nM
- TGI [22]: 1570 nM
- GI50 [23]: 275 nM
- TGI [23]: 3780 nM
- GI50 [24]: 1060 nM
- TGI [24]: 2930 nM
- GI50 [25]: 266 nM
- TGI [25]: 1860 nM
- GI50 [26]: 682 nM
- TGI [26]: 3390 nM
- GI50 [27]: 338 nM
- TGI [27]: 2590 nM
- GI50 [28]: 159 nM
- TGI [28]: > 85500 nM
- GI50 [29]: 321 nM
- TGI [29]: 2720 nM
- GI50 [30]: 640 nM
- TGI [30]: 5240 nM
- GI50 [31]: 125 nM
- TGI [31]: 4020 nM
- GI50 [32]: 393 nM
- TGI [32]: 5370 nM
- GI50 [33]: 250 nM
- TGI [33]: 3260 nM
- GI50 [34]: 186 nM
- TGI [34]: 3820 nM
- GI50 [35]: 114 nM
- TGI [35]: 2300 nM
- GI50 [36]: 962 nM
- TGI [36]: 5110 nM
- GI50 [37]: 229 nM
- TGI [37]: 3050 nM
- GI50 [38]: 285 nM
- TGI [38]: 4850 nM
- GI50 [39]: 435 nM
- TGI [39]: 4510 nM
- GI50 [40]: 689 nM
- TGI [40]: 2470 nM
- GI50 [41]: 138 nM
- TGI [41]: 6670 nM
- GI50 [42]: 175 nM
- TGI [42]: 1760 nM
- GI50 [43]: 393 nM
- TGI [43]: 2600 nM
- GI50 [44]: 697 nM
- TGI [44]: 3880 nM
- GI50 [45]: 444 nM
- TGI [45]: 3520 nM
- GI50 [46]: 270 nM
- TGI [46]: 1220 nM
- GI50 [47]: 281 nM
- TGI [47]: 3000 nM
- GI50 [48]: 408 nM
- TGI [48]: 3370 nM
- GI50 [49]: 381 nM
- TGI [49]: 10300 nM
- GI50 [50]: 458 nM
- TGI [50]: 3060 nM
- GI50 [51]: 240 nM
- TGI [51]: > 41300 nM
- GI50 [52]: 403 nM
- TGI [52]: 9430 nM
- GI50 [53]: 348 nM
- TGI [53]: 3990 nM
- GI50 [54]: 157 nM
- TGI [54]: 3180 nM
- GI50 [55]: 132 nM
- TGI [55]: 2860 nM
- GI50 [56]: 756 nM
- TGI [56]: 4420 nM
- GI50 [57]: 268 nM
- TGI [57]: 2990 nM
- GI50 [58]: 84.8 nM
- TGI [58]: 1510 nM
